Assay [1] addresses T1, CbuqOBP1 (Cyrtotrachelus buqueti, UniProt A0A1L3KPS8). Kind of assay: Binding of fluorescent probe 1-NPN to CbuqOBP1 (titration, Scatchard plot). Conditions: 2 μM protein titrated with 1-NPN 2 to 40 μM, read-out: K 1-NPN (dissociation constant of CbuqOBP1/1-NPN complex). The procedure: (§1) The fluorescence competition binding assays were carried out with a F-7000 fluorescence spectrophotometer (Hitachi, Tokyo, Japan) at room temperature using a 1 cm wide light-path fluorimeter quartz cuvette and 10 nm slits for both excitation and emission. The purified CbuqOBP1 was dissolved in 50 mM Tris–HCl buffer (pH 7.4) to a final concentration of 2 μM, while all ligands used in binding experiments were dissolved in chromatographic methanol to a final concentration of 1 mM.
N-phenyl-1-naphthylamine (1-NPN) (Aladdin Biochemical Technology Co., LTD., Shanghai, China) was used as the fluorescent probe. The probe was excited at 337 nm and emission spectra were recorded between 350 and 550 nm. […] Assuming that 1-NPN binds to the protein at a 1:1 ratio and that the protein was 100% active, a Scatchard plot analysis of the binding data was performed to calculate the dissociation constant (K d) of CbuqOBP1 with 1-NPN.

Assay [2] addresses T1, CbuqOBP1. The assay is described as follows: Fluorescence competition binding assay with 1-NPN as probe. Conditions: for Ki: K i = [IC50]/(1 + [1-NPN]/K 1-NPN), CbuqOBP1 and 1-NPN both 2 μM, pH 7.4. The procedure: as §1
N-phenyl-1-naphthylamine (1-NPN) (Aladdin Biochemical Technology Co., LTD., Shanghai, China) was used as the fluorescent probe. The probe was excited at 337 nm and emission spectra were recorded between 350 and 550 nm.
Based on the above studies, a total of nine candidate volatiles were selected as test ligands, including eight volatiles emitted by female adults of C. buqueti and the linalool released from the host plant N. affinis (Table 1). All these compounds were purchased from Aladdin Biochemical Technology Co., LTD. (Shanghai, China) with a purity of at least more than 90%. […] Binding data were collected as three independent measurements.

The test system of assay [3] is C. buqueti adults. The arrangement: method as in Cai, 2018. Conditions: previous behavioral studies; ref Cai, 2018; cited from earlier work.
Assay [4] concerns Bradysia odoriphaga (Diptera) adults. The arrangement: method as in Li L. et al., 2013; Chen et al., 2014. The settings on record: ref Li L. et al., 2013; Chen et al., 2014; cited from earlier work.
Assay [5] concerns Xylotrechus rusticus (Coleoptera) adults. The arrangement: method as in Li L. et al., 2013; Chen et al., 2014. Conditions: ref Li L. et al., 2013; Chen et al., 2014; cited from earlier work.
Where [6] appears, read: recombinant CbuqOBP1 and 1-NPN both 2 μM, 50 mM Tris-HCl pH 7.4, room temperature, read-out: IC50.

Each structure is given as a SMILES string. Where two headings read alike, the source gives them in different places.

T1 sequence (A0A1L3KPS8 entry or part of it): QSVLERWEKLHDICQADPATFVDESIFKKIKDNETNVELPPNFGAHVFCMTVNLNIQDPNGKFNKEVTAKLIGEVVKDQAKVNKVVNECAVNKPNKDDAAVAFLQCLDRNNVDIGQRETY

For `c1ccc(Nc2cccc3ccccc23)cc1` [1-NPN, N-phenyl-1-naphthylamine], the Kd in assay [1] turned out to be 24.2 µM.
One may read the IC50 as the concentration needed to halve the response being measured. Regarding `C=C(C)[C@H]1CC=C(C)CC1` [(+)-Limonene], the IC50 in assay [2] stood at 18.8 µM.
In assay [2], `c1ccc2scnc2c1` [Benzothiazole] gave an IC50 of 12 µM. In addition, the attractant for adults result in assay [3] is recorded as “efficient attractants”. The attractiveness to adults result in assay [4] and in assay [5] was “highly attractive” in each case.
In the case of `C[C@@H]1CC[C@H]2C(C)(C)[C@H]3C[C@@]12CC[C@@]3(C)O` [Cedrol], the IC50 in assay [2] stood at 40.3 µM.
The term Ki denotes a dissociation constant, usually derived from enzyme kinetics or from competition with a known ligand. For `CCCCCC(=O)OCC` [Ethyl hexanoate], the Ki in assay [2] was determined as 19.5 µM. Further, in assay [2] (setting [6]), the IC50 came to 21 µM.
Molecule `C=CC(C)(O)CCC=C(C)C` (stereo not shown) [Linalool] had an IC50 in assay [2] of 14.5 µM.
Same read-out and setting: to `Cc1cccc(C)c1` [M-xylene] belongs 36 µM.
For the molecule `Oc1ccccc1` [Phenol], in assay [2], the IC50 is 11.4 µM. Moreover, in assay [3], the attractant for adults result was “efficient attractants”.
As for `C=Cc1ccccc1` [Styrene], the IC50 in assay [2] is 22.1 µM.
Take `CCCC/C=C/C=C/C=O` [trans,trans-2,4-Nonadienal]: in assay [2], the Ki worked out at 22.4 µM. Further, in assay [2] (setting [6]), the IC50 stood at 24.3 µM.
